Values after ≈ are worked out from the molar mass of the structure shown. Active and inactive are the calls of the source. The rule behind the calls is not given here.
Tests used:
Enterococcus faecium = experiment: Antibacterial activity against vancomycin-resistant Enterococcus faecium ATCC 51559 assessed as reduction in bacterial growth incubated for 18 hrs by spectrophotometry based microtiter broth dilution method; assay type: functional; conditions: ATCC 51559, 18 h
Pseudomonas aeruginosa [1] = experiment: Potentiation of chloramphenicol-induced antibacterial activity against mutidrug-resistant Pseudomonas aeruginosa CCARM 2095 assessed as reduction in chloramphenicol MIC at 1/16th MIC incubated for 72 hrs by spectrophotometry; assay type: functional
Pseudomonas aeruginosa [2] = experiment: Fractional inhibitory concentration, ratio of MIC of compound in presence of ciprofloxacin to MIC of compound for antibacterial activity against multidrug-resistant Pseudomonas aeruginosa CCARM 2095; assay type: functional
Pseudomonas aeruginosa [3] = experiment: Fractional inhibitory concentration, ratio of MIC of compound in presence of […] uM chloramphenicol to MIC of chloramphenicol for antibacterial activity against multidrug-resistant Pseudomonas aeruginosa CCARM 2095; assay type: functional
Staphylococcus aureus [4] = experiment: Fractional inhibitory concentration index, sum of ratio of MIC of compound in presence of 128 uM chloramphenicol to MIC of chloramphenicol and ratio of MIC of compound in presence of chloramphenicol to MIC of chloramphenicol for antibacterial activity against methicillin-resistant Staphylococcus aureus CCARM 3089; assay type: functional
Staphylococcus aureus [5] = experiment: (§1) Fractional inhibitory concentration index, sum of ratio of MIC of compound in presence of […] uM oxacillin to MIC of oxacillin and ratio of MIC of compound in presence of oxacillin to MIC of oxacillin for antibacterial activity against methicillin-resistant Staphylococcus aureus CCARM 3089; assay type: functional
Pseudomonas aeruginosa [6] = experiment: Antibacterial activity against multidrug-resistant Pseudomonas aeruginosa CCARM 2095 assessed as reduction in bacterial growth incubated for 72 hrs by spectrophotometry; assay type: functional; conditions: CCARM 2095, 72 h
Staphylococcus aureus [7] = assay type: functional; conditions: CCARM 3089, 72 h
Staphylococcus aureus [8] = assay type: functional; conditions: CCARM 3089, 72 h; remark: listed apart in the source
Staphylococcus aureus [9] = experiment: Antibacterial activity against methicillin-resistant Staphylococcus aureus CCARM 3089 assessed as reduction in bacterial growth incubated for 18 hrs by spectrophotometry based microtiter broth dilution method; assay type: functional; conditions: CCARM 3089, 18 h
Escherichia coli = experiment: Induction of membrane integrity disruption in Escherichia coli at 2 times of MIC by propidium iodide staining based flow cytometry relative to control (reference value: 2.97 %); assay type: functional
Staphylococcus aureus [10] = experiment: Antibacterial activity against methicillin-resistant Staphylococcus aureus CCARM 3089 assessed as reduction in bacterial growth incubated for 72 hrs in presence of 128 uM chloramphenicol by spectrophotometry; assay type: functional; conditions: CCARM 3089, 72 h
Staphylococcus aureus [11] = experiment: Antibacterial activity against methicillin-resistant Staphylococcus aureus CCARM 3095 assessed as reduction in bacterial growth incubated for 18 hrs by spectrophotometry based microtiter broth dilution method; assay type: functional; conditions: CCARM 3095, 18 h
Staphylococcus aureus [12] = experiment: Fractional inhibitory concentration, ratio of MIC of compound in presence of ciprofloxacin to MIC of ciprofloxacin for antibacterial activity against methicillin-resistant Staphylococcus aureus CCARM 3089; assay type: functional
Pseudomonas aeruginosa [13] = experiment: Fractional inhibitory concentration, ratio of MIC of compound in presence of oxacillin to MIC of compound for antibacterial activity against multidrug-resistant Pseudomonas aeruginosa CCARM 2095; assay type: functional
Staphylococcus aureus [14] = experiment: Antibacterial activity against methicillin-resistant Staphylococcus aureus CCARM 3090 assessed as reduction in bacterial growth incubated for 18 hrs by spectrophotometry based microtiter broth dilution method; assay type: functional; conditions: CCARM 3090, 18 h
Pseudomonas aeruginosa [15] = experiment: Fractional inhibitory concentration index, sum of ratio of MIC of compound in presence of […] uM chloramphenicol to MIC of chloramphenicol and ratio of MIC of compound in presence of chloramphenicol to MIC of compound for antibacterial activity against multidrug-resistant Pseudomonas aeruginosa CCARM 2095; assay type: functional
Staphylococcus aureus [16] = experiment: Fractional inhibitory concentration, ratio of MIC of compound in presence of 128 uM chloramphenicol to MIC of chloramphenicol for antibacterial activity against methicillin-resistant Staphylococcus aureus CCARM 3089; assay type: functional
Pseudomonas aeruginosa [17] = experiment: Fractional inhibitory concentration index, sum of ratio of MIC of compound in presence of […] and ratio of MIC of compound in presence of oxacillin to MIC of compound for antibacterial activity against multidrug-resistant Pseudomonas aeruginosa CCARM 2095; assay type: functional
Pseudomonas aeruginosa [18] = assay type: functional; conditions: CCARM 2095, 72 h
Staphylococcus aureus [19] = experiment: as §1, with “ciprofloxacin” for “oxacillin”; assay type: functional
Staphylococcus aureus [20] = experiment: Induction of cytoplasmic membrane depolarization in Staphylococcus aureus at 2 times of MIC for a period of 600 sec by DiSC3-5-fluorescence based assay; assay type: functional, organism-based
Pseudomonas aeruginosa [21] = experiment: Antibacterial activity against multidrug-resistant Pseudomonas aeruginosa CCARM 2095 assessed as reduction in bacterial growth incubated for 18 hrs by spectrophotometry based microtiter broth dilution method; assay type: functional; conditions: CCARM 2095, 18 h
Pseudomonas aeruginosa [22] = experiment: Fractional inhibitory concentration, ratio of MIC of compound in presence of […] uM ciprofloxacin to MIC of ciprofloxacin for antibacterial activity against multidrug-resistant Pseudomonas aeruginosa CCARM 2095; assay type: functional
Staphylococcus aureus [23] = experiment: Induction of cytoplasmic membrane depolarization in Staphylococcus aureus at 2 times of MIC within 4 mins by SYTOX green-based assay; assay type: functional, organism-based
Pseudomonas aeruginosa [24] = experiment: Fractional inhibitory concentration, ratio of MIC of compound in presence of […] uM oxacillin to MIC of oxacillin for antibacterial activity against multidrug-resistant Pseudomonas aeruginosa CCARM 2095; assay type: functional
Staphylococcus aureus [25] = experiment: Antibacterial activity against methicillin-resistant Staphylococcus aureus CCARM 3089 assessed as reduction in bacterial growth incubated for 72 hrs by spectrophotometry; assay type: functional; conditions: CCARM 3089, 72 h
Pseudomonas aeruginosa [26] = experiment: Fractional inhibitory concentration, ratio of MIC of compound in presence of chloramphenicol to MIC of compound for antibacterial activity against multidrug-resistant Pseudomonas aeruginosa CCARM 2095; assay type: functional
Pseudomonas aeruginosa [27] = experiment: Potentiation of ciprofloxacin-induced antibacterial activity against mutidrug-resistant Pseudomonas aeruginosa CCARM 2095 assessed as reduction in ciprofloxacin MIC at 1/16th MIC incubated for 72 hrs by spectrophotometry; assay type: functional
Staphylococcus aureus [28] = experiment: Potentiation of ciprofloxacin-induced antibacterial activity against methicillin-resistant Staphylococcus aureus CCARM 3089 assessed as reduction in ciprofloxacin MIC at 1/16th MIC incubated for 72 hrs by spectrophotometry; assay type: functional
Pseudomonas aeruginosa [29] = experiment: Antibacterial activity against multidrug-resistant Pseudomonas aeruginosa CCARM 2109 assessed as reduction in bacterial growth incubated for 18 hrs by spectrophotometry based microtiter broth dilution method; assay type: functional; conditions: CCARM 2109, 18 h
Staphylococcus aureus [30] = experiment: Fractional inhibitory concentration, ratio of MIC of compound in presence of […] uM oxacillin to MIC of oxacillin for antibacterial activity against methicillin-resistant Staphylococcus aureus CCARM 3089; assay type: functional
Staphylococcus aureus [31] = experiment: Fractional inhibitory concentration, ratio of MIC of compound in presence of […] uM ciprofloxacin to MIC of ciprofloxacin for antibacterial activity against methicillin-resistant Staphylococcus aureus CCARM 3089; assay type: functional
Pseudomonas aeruginosa [32] = assay type: functional; conditions: CCARM 2095, 72 h; remark: listed apart in the source
Staphylococcus aureus [33] = experiment: Potentiation of oxacillin-induced antibacterial activity against methicillin-resistant Staphylococcus aureus CCARM 3089 assessed as reduction in oxacillin MIC at 1/16th MIC incubated for 72 hrs by spectrophotometry; assay type: functional
Pseudomonas aeruginosa [34] = experiment: Potentiation of oxacillin-induced antibacterial activity against mutidrug-resistant Pseudomonas aeruginosa CCARM 2095 assessed as reduction in oxacillin MIC at 1/16th MIC incubated for 72 hrs by spectrophotometry; assay type: functional

CC[C@H](C)[C@H](NC(=O)[C@H](CCCCN)NC(=O)[C@H](CCC(=O)O)NC(=O)[C@H](CCCCN)NC(=O)[C@H](CO)NC(=O)[C@H](CCCCN)NC(=O)[C@H](CCCNC(=N)N)NC(=O)[C@H](Cc1ccccc1)NC(=O)[C@H](Cc1ccccc1)NC(=O)[C@H](CC(=O)O)NC(=O)CNC(=O)[C@H](CC(C)C)NC(=O)[C@@H](N)CC(C)C)C(=O)NCC(=O)N[C@@H](CCCCN)C(=O)N[C@@H](CCC(=O)O)C(=O)N[C@@H](Cc1ccccc1)C(=O)N[C@@H](CCCCN)C(=O)N[C@@H](CCCNC(=N)N)C(=O)N[C@H](C(=O)N[C@H](C(=O)N[C@@H](CCC(N)=O)C(=O)N[C@@H](CCCNC(=N)N)C(=O)N[C@H](C(=O)N[C@@H](CCCCN)C(=O)N[C@@H](CC(=O)O)C(=O)N[C@@H](Cc1ccccc1)C(=O)N[C@@H](CC(C)C)C(=O)N[C@@H](CCCNC(=N)N)C(=O)N[C@@H](CC(N)=O)C(=O)N[C@@H](CC(C)C)C(=O)N[C@H](C(=O)N1CCC[C@H]1C(=O)N[C@@H](CCCNC(=N)N)C(=O)N[C@H](C(=O)N[C@@H](CCC(=O)O)C(=O)N[C@@H](CO)C(=O)O)[C@@H](C)O)C(C)C)[C@@H](C)CC)C(C)C)[C@@H](C)CC [CATHELICIDIN]
MIC (Enterococcus faecium): 8 µM (≈ 35.9 µg/mL)
fold change (FC) (Pseudomonas aeruginosa [1]): 2 - 4
FIC (Pseudomonas aeruginosa [2]): 0.5
FIC (Pseudomonas aeruginosa [3]): 0.25
fractional inhibitory concentration index (FICI) (Staphylococcus aureus [4]): 1
fractional inhibitory concentration index (FICI) (Staphylococcus aureus [5]): 0.75
MIC (Pseudomonas aeruginosa [6]): 4 µM (≈ 18 µg/mL)
MIC (Staphylococcus aureus [7]): 256 µM (≈ 1150 µg/mL)
MIC (Staphylococcus aureus [8]): 256 µM (≈ 1150 µg/mL)
MIC (Staphylococcus aureus [9]): 8 µM (≈ 35.9 µg/mL)
Activity (Escherichia coli): 55.5%
MIC (Staphylococcus aureus [10]): 64 µM
MIC (Staphylococcus aureus [11]): 16 µM (≈ 71.9 µg/mL)
FIC (Staphylococcus aureus [12]): 1
FIC (Pseudomonas aeruginosa [13]): 1
MIC (Staphylococcus aureus [14]): 4 µM (≈ 18 µg/mL)
fractional inhibitory concentration index (FICI) (Pseudomonas aeruginosa [15]): 0.75
FIC (Staphylococcus aureus [16]): 0.5
fractional inhibitory concentration index (FICI) (Pseudomonas aeruginosa [17]): 2
MIC (Pseudomonas aeruginosa [18]): 256 µM (≈ 1150 µg/mL)
fractional inhibitory concentration index (FICI) (Staphylococcus aureus [19]): 1.25
Activity (Staphylococcus aureus [20]): Active
MIC (Pseudomonas aeruginosa [21]): 4 µM (≈ 18 µg/mL)
FIC (Pseudomonas aeruginosa [22]): 0.25
Activity (Staphylococcus aureus [23]): Active
FIC (Pseudomonas aeruginosa [24]): 1
MIC (Staphylococcus aureus [25]): 8 µM (≈ 35.9 µg/mL)
FIC (Pseudomonas aeruginosa [26]): 0.5
fold change (FC) (Pseudomonas aeruginosa [27]): 2 - 4
fold change (FC) (Staphylococcus aureus [28]): 2 - 16
MIC (Pseudomonas aeruginosa [29]): 8 µM (≈ 35.9 µg/mL)
FIC (Staphylococcus aureus [30]): 0.5
FIC (Staphylococcus aureus [31]): 0.25
MIC (Pseudomonas aeruginosa [32]): 128 µM (≈ 575 µg/mL)
fold change (FC) (Staphylococcus aureus [33]): 2 - 16
fold change (FC) (Pseudomonas aeruginosa [34]): 2 - 4

H-LVIRWVRAGYKLYRAIKKK-NH2
MIC (Enterococcus faecium): 4 µM
fold change (FC) (Pseudomonas aeruginosa [1]): 4 - 16
FIC (Pseudomonas aeruginosa [2]): 0.5
FIC (Pseudomonas aeruginosa [3]): 0.031
fractional inhibitory concentration index (FICI) (Staphylococcus aureus [4]): 0.25
fractional inhibitory concentration index (FICI) (Staphylococcus aureus [5]): 0.5
MIC (Pseudomonas aeruginosa [6]): 2 µM
MIC (Staphylococcus aureus [7]): 128 µM
MIC (Staphylococcus aureus [8]): 256 µM
MIC (Staphylococcus aureus [9]): 4 µM
Activity (Escherichia coli): 68.98%
MIC (Staphylococcus aureus [10]): 16 µM
MIC (Staphylococcus aureus [11]): 2 µM
FIC (Staphylococcus aureus [12]): 0.125
FIC (Pseudomonas aeruginosa [13]): 0.25
MIC (Staphylococcus aureus [14]): 2 µM
fractional inhibitory concentration index (FICI) (Pseudomonas aeruginosa [15]): 0.281
FIC (Staphylococcus aureus [16]): 0.125
fractional inhibitory concentration index (FICI) (Pseudomonas aeruginosa [17]): 0.5
MIC (Pseudomonas aeruginosa [18]): 32 µM
fractional inhibitory concentration index (FICI) (Staphylococcus aureus [19]): 0.375
Activity (Staphylococcus aureus [20]): Active
MIC (Pseudomonas aeruginosa [21]): 2 µM
FIC (Pseudomonas aeruginosa [22]): 0.125
Activity (Staphylococcus aureus [23]): Active
FIC (Pseudomonas aeruginosa [24]): 0.25
MIC (Staphylococcus aureus [25]): 4 µM
FIC (Pseudomonas aeruginosa [26]): 0.25
fold change (FC) (Pseudomonas aeruginosa [27]): 4 - 16
fold change (FC) (Staphylococcus aureus [28]): 4 - 32
MIC (Pseudomonas aeruginosa [29]): 4 µM
FIC (Staphylococcus aureus [30]): 0.25
FIC (Staphylococcus aureus [31]): 0.25
MIC (Pseudomonas aeruginosa [32]): 64 µM
fold change (FC) (Staphylococcus aureus [33]): 4 - 32
fold change (FC) (Pseudomonas aeruginosa [34]): 4 - 16

Reference: ChEMBL document CHEMBL4406836, “The design of a cell-selective fowlicidin-1-derived peptide with both antimicrobial and anti-inflammatory activities” (Eur J Med Chem, 2019)
